# Laboratory results published in US20060069132A1, “Azolecarboxamide herbicides” (priority 2004, published 2006).
# Legend:
# barnyardgrass = assay: Test B pre-/postemergence herbicide test; format: in vivo, Echinochloa crus-galli; conditions: for Barnyardgrass plant response rating: Postemergence, scale 0 (no effect) to 100 (complete control)
# Procedure, shortened: (§1)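 Greenhouse pot assay with simultaneous preemergence (treated seed) and postemergence (2–18 cm seedlings) applications of surfactant-containing, non-phytotoxic solvent formulations. Response scored visually 13–15 days later on a 0–100 scale, 100 meaning complete control.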
# blackgrass = assay: Test B postemergence herbicide test; format: in vivo, Alopecurus myosuroides
# Procedure, shortened: (§2)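 Greenhouse test; postemergence application to plants at 1–4 leaves (2–18 cm); paddy species at 2 leaves; evaluated visually vs controls at 13–15 days; scale 0–100 (100 = complete control).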
# large crabgrass = assay: Test B pre-/postemergence herbicide test; format: in vivo, Digitaria sanguinalis
# Procedure, shortened: (§3)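 Seeds were planted and treated preemergence with compounds formulated in a non-phytotoxic solvent mixture containing surfactant, while plants at the 1- to 4-leaf stage (2 to 18 cm) received postemergence sprays. Flooded paddy plants were grown to the 2-leaf stage. After 13 to 15 days in a greenhouse, injury was visually rated 0–100 against untreated controls.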
# ducksalad = assay: Test B flooded paddy test; format: in vivo, Heteranthera limosa; conditions: 1000 g ai/ha, scale 0 to 100 (0 no effect, 100 complete control)
# Procedure, shortened: as §2
# velvetleaf = assay: Test B pre-/postemergence herbicide test; format: in vivo, Abutilon theophrasti
# Procedure, shortened: as §3
# wheat = assay: Test B postemergence herbicide test; format: in vivo, Triticum aestivum; design: key to Wheat plant response rating: 0 = no effect, 100 = complete control
# Procedure, shortened: (§4)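 Read-out: visual comparison with controls, scored 0 to 100, where 100 means complete control and 0 no effect. Formulated chemicals were applied postemergence to plants 2–18 cm tall (1- to 4-leaf), or to flooded-paddy plants at the 2-leaf stage, then held 13 to 15 days under glass.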
# [1] = system: small flower umbrella sedge; assay: Test B flooded paddy test; format: in vivo, Cyperus difformis; conditions: 1000 g ai/ha, scale 0 to 100 (0 no effect, 100 complete control)
# Procedure, shortened: as §2
# lambsquarters = assay: Test B pre-/postemergence herbicide test; format: in vivo, Chenopodium album
# Procedure, shortened: as §3
# corn = assay: Test B pre-/postemergence herbicide test; format: in vivo, Zea mays
# Procedure, shortened: as §3
# morningglory = assay: Test B pre-/postemergence herbicide test; format: in vivo, Ipomoea coccinea
# Procedure, shortened: as §1
# giant foxtail = assay: Test B pre-/postemergence herbicide test; format: in vivo, Setaria faberi
# Procedure, shortened: as §3
# Surinam grass = assay: Test B pre-/postemergence herbicide test; format: in vivo, Urochloa decumbens
# Procedure, shortened: as §3
# rice = assay: Test B flooded paddy test; format: in vivo, Oryza sativa; conditions: 1000 g ai/ha, scale 0 to 100 (0 no effect, 100 complete control)
# Procedure, shortened: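 Visual ratings, 0 (no effect) to 100 (complete control), made versus controls after 13–15 d greenhouse. Paddy plants treated at 2-leaf stage; postemergence plants at 1- to 4-leaf stage, 2–18 cm tall.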
# wild oat = assay: Test B postemergence herbicide test; format: in vivo, Avena fatua
# Procedure, shortened: as §4
# pigweed = assay: Test B pre-/postemergence herbicide test; format: in vivo, Amaranthus retroflexus
# Procedure, shortened: as §3
# [2] = 125 g ai/ha, 0 is no effect, 100 is complete control, preemergence
# [3] = Postemergence, 500 g ai/ha, scale 0 (no effect) to 100 (complete control)
# [4] = postemergence, 125 g ai/ha, scale 0 to 100
structure (smiles),measurement,setting,value
C=CCNC(=O)c1cccc(NC(=O)c2nn(C(C)(C)C)nc2CC)c1 [Compound 414],"Plant response rating (0 to 100 scale), Barnyardgrass",barnyardgrass; [2],90
same,Barnyardgrass plant response rating,barnyardgrass; 125 g ai/ha,30
same,Barnyardgrass plant response rating,barnyardgrass; 500 g ai/ha,30
same,Blackgrass plant response rating,blackgrass; [3],50
same,Blackgrass plant response rating,blackgrass; [4],40
same,"Plant response rating (0 to 100 scale), Crabgrass, Large",large crabgrass; [2],100
same,"Crabgrass, Large plant response rating",large crabgrass; [3],70
same,"Crabgrass, Large plant response rating",large crabgrass; [4],30
same,Ducksalad plant response rating,ducksalad,90
same,"Plant response rating (0 to 100 scale), Velvetleaf",velvetleaf; [2],70
same,Velvetleaf plant response rating,velvetleaf; [3],70
same,Velvetleaf plant response rating,velvetleaf; [4],50
same,Wheat plant response rating,"wheat; 500 g ai/ha, scale 0 to 100, 0 no effect, 100 complete control, preemergence",100
same,Wheat plant response rating,wheat; [3],20
same,Wheat plant response rating,wheat; [4],10
same,"Sedge, Umbrella plant response rating",[1],90
same,"Plant response rating (0 to 100 scale), Lambsquarters",lambsquarters; [2],100
same,Lambsquarters plant response rating,lambsquarters; [3],100
same,Lambsquarters plant response rating,lambsquarters; [4],80
same,"Plant response rating (0 to 100 scale), Corn",corn; [2],70
same,Corn plant response rating,corn; [3],40
same,Corn plant response rating,corn; [4],30
same,"Plant response rating (0 to 100 scale), Morningglory",morningglory; [2],10
same,Morningglory plant response rating,morningglory; [3],70
same,Morningglory plant response rating,morningglory; [4],20
same,"Plant response rating (0 to 100 scale), Foxtail, Giant",giant foxtail; [2],90
same,"Foxtail, Giant plant response rating",giant foxtail; [3],40
same,"Foxtail, Giant plant response rating",giant foxtail; [4],30
same,"Plant response rating (0 to 100 scale), Surinam Grass",Surinam grass; [2],90
same,Surinam Grass plant response rating,Surinam grass; [3],60
same,Surinam Grass plant response rating,Surinam grass; [4],20
same,Rice plant response rating,rice,80
same,"Oat, Wild plant response rating",wild oat; [3],40
same,"Oat, Wild plant response rating",wild oat; [4],30
same,"Plant response rating (0 to 100 scale), Pigweed",pigweed; [2],100
same,Pigweed plant response rating,pigweed; [3],100
same,Pigweed plant response rating,pigweed; [4],90
